Reference: patent publication US4684719A, “α,α-trehalose fatty acid diester derivative” (SS Pharmaceutical Co., Ltd., priority 1984, dated 1987)
≈ marks a conversion by molar mass, not a printed value.

Assays:
Ehrlich carcinoma = assay: Activities against Ehrlich carcinoma (antitumor effect, survival time in mice); format: in vivo, ICR female mice; settings: Mus musculus, ip, 720 h, intraperitoneal, once a day for 10 days, average survival time counted 30 days after implantation, read-out: Antitumor effect (T/C %)
Procedure: (1) Activities against Ehrlich carcinoma:
To 8 ICR female mice as a group, Ehrlich carcinoma cells were intraperitoneally implanted in an amount of 10^5 cells per mouse. From an elapsed time of 24 hours after the implantation, the compound (I) of this invention which was suspended in physiological saline containing 0.5% of CMC-Na was intraperitoneally administered in predetermined dosages (0.4 mg/kg, 4.0 mg/kg and 40.0 mg/kg), once a day and for 10 days.
Upon an elapsed time of 30 days after the implantation of the carcinoma, the survival time of each mouse was counted. The average survival time of Control Group (C) and that of Group (T), in which the compound of this invention was administered, were obtained respectively. Antitumor effect (T/C %) was then determined in accordance with the following equation. [formula]

Leukemia L-5178Y cells = assay: Cell-killing activities (leukemia L-5178Y cells); format: cell-based; settings: Mus musculus, L5178Y; 48 hours, 37° C., 5% CO2; live cells counted microscopically, probit diagram method
Procedure: (2) Cell-killing activities:
Leukemia L-5178Y cells were provided to a concentration of 2×10^5cells/ml in PRMI 1640 culture medium which contained 10% of bovine fetus albumin. To portions of the above-prepared culture medium, the compound of this invention was added to concentrations 3.125, 6.25, 12.5, 25, 50, 100 and 300 μg/ml respectively. After culturing them for 48 hours in a 5% CO2 incubator of 37° C., the numbers of live cells on respective portions of the culture were counted microscopically. Percentage proliferation was determined relative to Control and 50% Inhibitory Concentration (IC50) was obtained by the probit diagram method.

Structure (SMILES) | response vs control in vivo at 0.4 mg/kg (Ehrlich carcinoma) | response vs control in vivo at 4 mg/kg (Ehrlich carcinoma) | response vs control in vivo at 40 mg/kg (Ehrlich carcinoma) | IC50 (Leukemia L-5178Y cells)
CC(=O)O[C@H]1[C@H](O)[C@@H](O)[C@@H](O[C@H]2O[C@H](CO)[C@@H](OC(C)=O)[C@H](O)[C@H]2O)O[C@@H]1CO [Compound 11] | 154% | 105% | 114% | 
CCCC(=O)O[C@H]1[C@H](O)[C@@H](O)[C@@H](O[C@H]2O[C@H](CO)[C@@H](OC(=O)CCC)[C@H](O)[C@H]2O)O[C@@H]1CO [Compound 12] | 141% | 142% | 114% | 
CCCCCC(=O)O[C@H]1[C@H](O)[C@@H](O)[C@@H](O[C@H]2O[C@H](CO)[C@@H](OC(=O)CCCCC)[C@H](O)[C@H]2O)O[C@@H]1CO [Compound 13] | 127% | 120% | 103% | > 300 µg/mL
CCCCCCCC(=O)O[C@H]1[C@H](O)[C@@H](O)[C@@H](O[C@H]2O[C@H](CO)[C@@H](OC(=O)CCCCCCC)[C@H](O)[C@H]2O)O[C@@H]1CO [Compound 14] | 136% | 117% | 183% | 35.1 µg/mL (≈ 59 µM)
CCCCCCCCCC(=O)O[C@H]1[C@H](O)[C@@H](O)[C@@H](O[C@H]2O[C@H](CO)[C@@H](OC(=O)CCCCCCCCC)[C@H](O)[C@H]2O)O[C@@H]1CO [Compound 15] | 121% | 152% | 188% | 11.2 µg/mL (≈ 17.2 µM)
CCCCCCCCCCCC(=O)O[C@H]1[C@H](O)[C@@H](O)[C@@H](O[C@H]2O[C@H](CO)[C@@H](OC(=O)CCCCCCCCCCC)[C@H](O)[C@H]2O)O[C@@H]1CO [Compound 16] | 102% | 180% | 225% | 8.4 µg/mL (≈ 11.9 µM)
CCCCCCCCCCCCCC(=O)O[C@H]1[C@H](O)[C@@H](O)[C@@H](O[C@H]2O[C@H](CO)[C@@H](OC(=O)CCCCCCCCCCCCC)[C@H](O)[C@H]2O)O[C@@H]1CO [Compound 17] | 98% | 203% | 203% | 12.6 µg/mL (≈ 16.5 µM)
CCCCCCCCCCCCCCCC(=O)O[C@H]1[C@H](O)[C@@H](O)[C@@H](O[C@H]2O[C@H](CO)[C@@H](OC(=O)CCCCCCCCCCCCCCC)[C@H](O)[C@H]2O)O[C@@H]1CO [Compound 18] | 125% | 216% | 189% | > 300 µg/mL
CCCCCCCCCCCCCCCCCC(=O)O[C@H]1[C@H](O)[C@@H](O)[C@@H](O[C@H]2O[C@H](CO)[C@@H](OC(=O)CCCCCCCCCCCCCCCCC)[C@H](O)[C@H]2O)O[C@@H]1CO [Compound 19, 4,4'-di-O-stearoyl-α,α-trehalose] | 98% | 183% | 198% | 
CCCCCCCCCCCCCCCCCCCCCC(=O)O[C@H]1[C@H](O)[C@@H](O)[C@@H](O[C@H]2O[C@H](CO)[C@@H](OC(=O)CCCCCCCCCCCCCCCCCCCCC)[C@H](O)[C@H]2O)O[C@@H]1CO [Compound 20] | 165% | 179% | 157% | 
